Results: PubChem BioAssay AID248 (DTP/NCI, 2004)
Where “and” joins values, the source holds several entries; their conditions need not be identical. Equal entries are not always repeated. Toxic doses and inconclusive results are not listed. Peptide text beside a SMILES is read from it. * marks the point of attachment. Cbz = O=C(OCc1ccccc1)*; CH2Cl = ClC*

Test system: L1210 leukemia ip in BDF1 mice, survival T/C
Assay: NCI In Vivo Anticancer Drug Screen. Data for tumor model L1210 Leukemia (intraperitoneal) in B6D2F1 (BDF1) mice
Conditions: endpoint: mean survival time, higher = longer survival
Method in brief: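 Transplantable tumor model; survival measured in treated vs vehicle control mice. Value = treated/control.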

[1] = dose: 100.0 mg/kg/injection, schedule: Q04DX003 (ip), vehicle: Klucel (hydroxypropylcellulose) (HPC)
[2] = dose: 200.0 mg/kg/injection, schedule: Q04DX003 (ip), vehicle: Klucel (hydroxypropylcellulose) (HPC)

## CCCCn1cnc2c(=S)nc[nH]c21
dose: 5.0 mg/kg/injection, schedule: Q01DX Z (ip), vehicle: carboxymethylcellulose (CMC)
  T/C: 98 % of control
dose: 8.0 mg/kg/injection, schedule: Q01DX Z (ip), vehicle: carboxymethylcellulose (CMC)
  T/C: 103 % of control
dose: 10.0 mg/kg/injection, schedule: Q01DX Z (ip), vehicle: carboxymethylcellulose (CMC)
  T/C: 102 % of control
dose: 16.0 mg/kg/injection, schedule: Q01DX Z (ip), vehicle: carboxymethylcellulose (CMC)
  T/C: 103 % of control
dose: 16.0 mg/kg/injection, schedule: Q01DX Z (ip), vehicle: saline
  T/C: 94 % of control
dose: 16.0 mg/kg/injection, schedule: Q01DX Z (oral), vehicle: carboxymethylcellulose (CMC)
  T/C: 109 % of control
dose: 20.0 mg/kg/injection, schedule: Q01DX Z (ip), vehicle: carboxymethylcellulose (CMC)
  T/C: 104 % of control
dose: 32.0 mg/kg/injection, schedule: Q01DX009 (ip), vehicle: saline
  T/C: 101 % of control
dose: 32.0 mg/kg/injection, schedule: Q01DX Z (ip), vehicle: carboxymethylcellulose (CMC)
  T/C: 120 % of control
dose: 32.0 mg/kg/injection, schedule: Q01DX Z (ip), vehicle: saline
  T/C: 97 % of control
dose: 32.0 mg/kg/injection, schedule: Q01DX Z (oral), vehicle: carboxymethylcellulose (CMC)
  T/C: 112 % of control
dose: 40.0 mg/kg/injection, schedule: Q01DX Z (ip), vehicle: carboxymethylcellulose (CMC)
  T/C: 112 % of control
dose: 64.0 mg/kg/injection, schedule: Q01DX009 (ip), vehicle: saline
  T/C: 115 % of control and 121 % of control
dose: 64.0 mg/kg/injection, schedule: Q01DX Z (ip), vehicle: saline
  T/C: 123 % of control
dose: 64.0 mg/kg/injection, schedule: Q01DX Z (oral), vehicle: carboxymethylcellulose (CMC)
  T/C: 117 % of control
dose: 86.0 mg/kg/injection, schedule: Q02DX010 (ip), vehicle: carboxymethylcellulose (CMC)
  T/C: 117 % of control
dose: 88.0 mg/kg/injection, schedule: Q02DX010 (ip), vehicle: carboxymethylcellulose (CMC)
  T/C: 116 % of control
dose: 100.0 mg/kg/injection, schedule: Q01DX015 (ip), vehicle: carboxymethylcellulose (CMC)
  T/C: 178 % of control
dose: 160.0 mg/kg/injection, schedule: Q01DX015 (ip), vehicle: carboxymethylcellulose (CMC)
  T/C: 152 % of control
dose: 225.0 mg/kg/injection, schedule: Q01DX015 (ip), vehicle: carboxymethylcellulose (CMC)
  T/C: 124 % of control
dose: 240.0 mg/kg/injection, schedule: Q01DX015 (ip), vehicle: carboxymethylcellulose (CMC)
  T/C: 116 % of control
dose: 256.0 mg/kg/injection, schedule: Q01DX009 (ip), vehicle: saline
  T/C: 121 % of control
dose: 256.0 mg/kg/injection, schedule: Q01DX Z (ip), vehicle: saline
  T/C: 100 % of control
dose: 320.0 mg/kg/injection, schedule: Q01DX015 (ip), vehicle: carboxymethylcellulose (CMC)
  T/C: 92 % of control
dose: 335.0 mg/kg/injection, schedule: Q01DX015 (ip), vehicle: carboxymethylcellulose (CMC)
  T/C: 98 % of control

## CCC(=N)C1CCCCC1
dose: 75.0 mg/kg/injection, schedule: Q01DX001 (ip), vehicle: carboxymethylcellulose (CMC)
  T/C: 102 % of control
dose: 150.0 mg/kg/injection, schedule: Q01DX001 (ip), vehicle: carboxymethylcellulose (CMC)
  T/C: 93 % of control

## CN1CCCC1=Nc1ccc([N+](=O)[O-])cc1
dose: 100.0 mg/kg/injection, schedule: Q01DX009 (ip), vehicle: Klucel (hydroxypropylcellulose) (HPC)
  T/C: 104 % of control
dose: 200.0 mg/kg/injection, schedule: Q01DX009 (ip), vehicle: Klucel (hydroxypropylcellulose) (HPC)
  T/C: 108 % of control
dose: 400.0 mg/kg/injection, schedule: Q01DX009 (ip), vehicle: Klucel (hydroxypropylcellulose) (HPC)
  T/C: 102 % of control

## O=C(O)C(Oc1ccc(Cl)cc1Cl)C(Oc1ccc(Cl)cc1Cl)C(=O)O (stereo unspecified)
dose: 100.0 mg/kg/injection, schedule: Q04DX002 (ip), vehicle: carboxymethylcellulose (CMC)
  T/C: 98 % of control
dose: 200.0 mg/kg/injection, schedule: Q04DX002 (ip), vehicle: carboxymethylcellulose (CMC)
  T/C: 88 % of control
dose: 400.0 mg/kg/injection, schedule: Q04DX002 (ip), vehicle: Klucel (hydroxypropylcellulose) (HPC)
  T/C: 155 % of control
dose: 400.0 mg/kg/injection, schedule: Q04DX002 (ip), vehicle: carboxymethylcellulose (CMC)
  T/C: 92 % of control
dose: 800.0 mg/kg/injection, schedule: Q04DX002 (ip), vehicle: carboxymethylcellulose (CMC)
  T/C: 98 % of control

## N/N=C1\c2ccccc2-c2cc([N+](=O)[O-])ccc21
dose: 100.0 mg/kg/injection, schedule: Q01DX001 (ip), vehicle: carboxymethylcellulose (CMC)
  T/C: 104 % of control
dose: 200.0 mg/kg/injection, schedule: Q01DX001 (ip), vehicle: carboxymethylcellulose (CMC)
  T/C: 95 % of control

## CCN(CC)CCCC(C)Nc1ccnc(C)c1 (stereo unspecified)
dose: 10.0 mg/kg/injection, schedule: Q04DX003 (ip), vehicle: other
  T/C: 100 % of control
dose: 20.0 mg/kg/injection, schedule: Q04DX003 (ip), vehicle: other
  T/C: 95 % of control
dose: 40.0 mg/kg/injection, schedule: Q04DX003 (ip), vehicle: other
  T/C: 94 % of control

## Clc1ccc(N=Cc2ccc(C=Nc3ccc(Cl)c(Cl)c3)cc2)cc1Cl
[1]
  T/C: 97 % of control
dose: 200.0 mg/kg/injection, schedule: Q01DX009 (ip), vehicle: saline sonified
  T/C: 89 % of control
[2]
  T/C: 89 % of control
dose: 400.0 mg/kg/injection, schedule: Q04DX003 (ip), vehicle: Klucel (hydroxypropylcellulose) (HPC)
  T/C: 96 % of control

## C1CCN[N-]C1.C1CCN[N-]C1.[Cl][Pt+2]([Cl])([Cl])[Cl]
dose: 25.0 mg/kg/injection, schedule: Q04DX003 (ip), vehicle: water
  T/C: 111 % of control
dose: 50.0 mg/kg/injection, schedule: Q04DX003 (ip), vehicle: water
  T/C: 102 % of control
dose: 100.0 mg/kg/injection, schedule: Q04DX003 (ip), vehicle: water
  T/C: 102 % of control

## C/C=[N+](/[O-])CC
dose: 100.0 mg/kg/injection, schedule: Q01DX009 (ip), vehicle: saline
  T/C: 102 % of control
dose: 100.0 mg/kg/injection, schedule: Q04DX003 (ip), vehicle: saline
  T/C: 102 % of control
dose: 200.0 mg/kg/injection, schedule: Q01DX009 (ip), vehicle: saline
  T/C: 101 % of control
dose: 200.0 mg/kg/injection, schedule: Q04DX003 (ip), vehicle: saline
  T/C: 105 % of control
dose: 400.0 mg/kg/injection, schedule: Q01DX009 (ip), vehicle: saline
  T/C: 101 % of control
dose: 400.0 mg/kg/injection, schedule: Q04DX003 (ip), vehicle: saline
  T/C: 110 % of control

## CCCCP(=O)(CCCC)CCP(=O)(CCCC)CCCC
dose: 100.0 mg/kg/injection, schedule: Q04DX003 (ip), vehicle: saline with Tween-80
  T/C: 88 % of control
dose: 200.0 mg/kg/injection, schedule: Q04DX003 (ip), vehicle: saline with Tween-80
  T/C: 97 % of control

## CC(=O)Nc1cccc2nsnc12
[1]
  T/C: 100 % of control
[2]
  T/C: 93 % of control

## CC1CCC2N(C1)CC1C3(O)CC4(O)C(CCC5C(=O)C(O)CCC54C)C3(O)CC(O)C1(O)C2(C)O (stereo unspecified)
dose: 5.0 mg/kg/injection, schedule: Q01DX001 (ip), vehicle: saline
  T/C: 98 % of control
dose: 10.0 mg/kg/injection, schedule: Q01DX001 (ip), vehicle: saline
  T/C: 98 % of control
dose: 20.0 mg/kg/injection, schedule: Q01DX001 (ip), vehicle: saline
  T/C: 98 % of control

## O=C(O)/C(=N\Nc1ccccc1)c1ccccc1
dose: 50.0 mg/kg/injection, schedule: Q01DX001 (ip), vehicle: saline
  T/C: 107 % of control
dose: 100.0 mg/kg/injection, schedule: Q01DX001 (ip), vehicle: saline
  T/C: 96 % of control
dose: 200.0 mg/kg/injection, schedule: Q01DX001 (ip), vehicle: saline
  T/C: 110 % of control
dose: 400.0 mg/kg/injection, schedule: Q01DX001 (ip), vehicle: saline
  T/C: 90 % of control

## CC(C)CC(NC(=O)OCc1ccccc1)C(=O)NC(Cc1ccccc1)C(=O)CCl (stereo not drawn) (Cbz-Leu-Phe-CH2Cl; configuration not given here)
dose: 25.0 mg/kg/injection, schedule: Q04DX003 (ip), vehicle: Klucel (hydroxypropylcellulose) (HPC)
  T/C: 104 % of control
dose: 50.0 mg/kg/injection, schedule: Q04DX003 (ip), vehicle: Klucel (hydroxypropylcellulose) (HPC)
  T/C: 102 % of control
dose: 100.0 mg/kg/injection, schedule: Q01DX001 (ip), vehicle: Klucel (hydroxypropylcellulose) (HPC)
  T/C: 90 % of control
[1]
  T/C: 96 % of control and 89 % of control
dose: 200.0 mg/kg/injection, schedule: Q01DX001 (ip), vehicle: Klucel (hydroxypropylcellulose) (HPC)
  T/C: 88 % of control
dose: 400.0 mg/kg/injection, schedule: Q01DX001 (ip), vehicle: Klucel (hydroxypropylcellulose) (HPC)
  T/C: 103 % of control

## CC12C(=O)OC3CCC1CC32 (stereo unspecified)
dose: 75.0 mg/kg/injection, schedule: Q04DX003 (ip), vehicle: saline
  T/C: 97 % of control
dose: 150.0 mg/kg/injection, schedule: Q04DX003 (ip), vehicle: saline
  T/C: 94 % of control
dose: 300.0 mg/kg/injection, schedule: Q04DX003 (ip), vehicle: saline
  T/C: 94 % of control

## C[C@@H]1CC2=CC(=O)C=C[C@]2(C)[C@H]2CC[C@@]3(C)[C@@H](CC[C@]3(C)O)[C@H]12
dose: 100.0 mg/kg/injection, schedule: Q01DX001 (sc), vehicle: steriod suspending solution
  T/C: 104 % of control
dose: 200.0 mg/kg/injection, schedule: Q01DX001 (sc), vehicle: steriod suspending solution
  T/C: 106 % of control
dose: 400.0 mg/kg/injection, schedule: Q01DX001 (sc), vehicle: steriod suspending solution
  T/C: 97 % of control
